# Results: US9789102B2, “H3 receptor antagonist for use in the treatment of alzheimer's disease” (SANOFI, priority 2012, dated 2017)
# How the values were obtained:
# [1] = test system: tau phosphorylation on AD2 epitope (pSer396-pSer404); assay: Western blot of tau phosphorylation on AD-2 epitope after six months in food (Example 3); format: in vivo, THY-Tau22 mice; settings: 0.0034% in food
# From the text: (§1) 2-(Cyclohexylmethyl)-N-{2-[(2S)-1-methylpyrrolidin-2-yl]ethyl}-1,2,3,4-tetrahydroisoquinoline-7-sulfonamide difumarate monohydrate was administrated as a supplement in food at doses of 0.00034%, 0.0034% and 0.034% for six months in THY-Tau22 and wild type mice as follows: • Tg Veh (n=17) • Tg Active Ingredient—0.034% (n=17) • Tg Active Ingredient—0.0034% (n=17) • Tg Active Ingredient—0.00034% (n=17) • WT Veh (n=17) • WT Active Ingredient—0.034% (n=17) • WT Active Ingredient—0.0034% (n=17) • WT Active Ingredient—0.00034% (n=17) • WT groups treated with Active Ingredient are not used in the biochemical and histological studies.
# (§2) For immunoblot analysis, frozen mouse tissues (either hippocampus or cortex) were homogenized using a Precellys 24 tissue homogenizer in 350 μl RIPA buffer from Cell Signaling (20 mM Tris-HCl (pH 7.5), 150 mM NaCl, 1 mM Na2 EDTA, 1 mM EGTA, 1% NP-40, 1% sodium deoxycholate, 2.5 mM sodium pyrophosphate, 1 mM beta-glycerophosphate, 1 mM Na3VO4, 1 μg/ml leupeptin) to which proteases inhibitors (Sigma cocktail 1% v/v) and phosphatases inhibitors (okadaic acid 1 μM, sodium fluoride 100 mM) were added. After centrifugation, 16000×g 4° C. for 10 minutes, protein content in supernatants was determined with BioRad DC Protein Assay kit, using BSA as a standard. Equal amounts of protein (5 μg) were loaded on 15-well 4-12% Bis-Tris gels (NuPAGE, Invitrogen) and electrophoresis was performed at 200V for 50 minutes in MOPS buffer according to the manufacturer's instructions. […] Tau protein was detected using the following mouse antibody: AD-2 1/20.000^e (Biorad, 56484) which recognizes tau protein phosphorylated on Ser396 and Ser404. […]
# (§3) Following incubation with primary antibodies, blots were rinsed in TBS Tween 0.1% and incubated for 1 hour at room temperature in an anti-mouse IgG horseradish peroxidase (HRP)-linked secondary antibody 1/10,000^e (GE healthcare, NA9310) diluted in 5% non-fat dry milk in TBS Tween 0.1%. […] Quantification of immunoreactive signal was performed using Multigauge V3.0 software (FUJIFILM). […]
# MIP-1α gene expression = assay: mRNA expression of MIP-1α in hippocampus by QPCR after six months in food; format: in vivo, THY-Tau22 mice
# From the text: as §1
# 1. […] To assess the quality and concentration of the total RNA, 1 μl was analyzed on an RNA LabChip (Agilent) using a 2100 Bioanalyser, (Agilent Technologies). […]
# 2 μg of total RNA from each mouse was reverse transcribed with oligo (dT)16 and random primers using a High-Capacity cDNA Archive Kit (Applied Biosystems), following the manufacturer recommendations. […] For real time PCR, the housekeeping gene R.L37A, was amplified using a quantitect primer assay from Qiagen (QT00252266) and MIP1 alpha was amplified using the following primers (5′-[…]-3′) SEQ ID NO: 1; (5′-[…]-3′) SEQ ID NO: 2. […]
# [2] = test system: tau phosphorylation at the AT-8 epitope; assay: Western blot analysis of tau phosphorylation at AT-8 epitope after six months in food; format: in vivo, THY-Tau22 mice; settings: 0.0034% in food, trend only, ns
# [3] = test system: THY-Tau22 transgenic mice; assay: Cognitive deficits after 6 months of treatment; format: in vivo; settings: clinically relevant doses
# [4] = test system: protein tau phosphorylation at AD-2 epitope; assay: Western blot of tau phosphorylation at AD-2 epitope after single administration (Example 1); format: in vivo; settings: THY-Tau22 mice
# Description: as §2, with “standard.” for “standard. Equal amounts of protein (5 μg) were loaded on 15-well 4-12% Bis-Tris gels (NuPAGE, Invitrogen) and electrophoresis was performed at 200V for 50 minutes in MOPS buffer according to the manufacturer's instructions.”
# as §3
compound,measurement,setting,value
"CN1CCC[C@H]1CCNS(=O)(=O)c1ccc2c(c1)CN(CC1CCCCC1)CC2 [2-(cyclohexylmethyl)-N-{2-[(2S)-1-methylpyrrolidin-2-yl]ethyl}-1,2,3,4-tetrahydroisoquinoline-7-sulfonamide difumarate monohydrate]","protein tau phosphorylation on AD-2 epitope in hippocampus, vs vehicle",[1]; THY-Tau22 mice,statistical significant decrease
same,"inhibition of tau phosphorylation at the AD-2 epitope, cortex","[1]; Western blot, non-significant, p=0.1807",−57%
same,"inhibition of tau phosphorylation at the AD-2 epitope, hippocampus","[1]; Western blot, p=0.0229 vs vehicle",−37%
same,"MIP-1α gene expression in hippocampus, vs vehicle",MIP-1α gene expression; 0.00034% in food,statistical significant decrease
same,"MIP-1α gene expression in hippocampus, vs vehicle",MIP-1α gene expression; 0.0034% in food,statistical significant decrease
same,"inhibition of tau phosphorylation at the AT-8 epitope, hippocampus",[2],−22%
same,cognitive deficits,[3],decreases cognitive deficits
same,effect on protein tau phosphorylation at AD-2 epitope in the cortex,[4]; 3 mg/kg per os,did not elicit any effect
same,effect on protein tau phosphorylation at AD-2 epitope in the cortex,[4]; 10 mg/kg per os,did not elicit any effect
